# Reference: publication PMC7721803, “Development of a penem antibiotic against Mycobacteroides abscessus” (Communications Biology, 2020)
# System: M. abscessus
# Experiment: MIC by broth dilution method (Middlebrook 7H9)
# Format: cell-based, Mycobacteroides abscessus
structure (smiles),measurement,setting,value
C[C@@H](O)C1C(=O)N2C(C(=O)O)=C(SC3CN(C4=NCCS4)C3)SC12 (stereo in doubt) [T405],strains exhibiting MICs of ≤4 µg/mL,20 clinical M. abscessus strains,17/20
same,MIC of T405 with avibactam,"ATCC 19977, avibactam 4 µg/mL",0.5 µg/mL
same,MIC50,Mycobacteroides abscessus,2 µg/mL
same,MIC90,Mycobacteroides abscessus,8 µg/mL
same,MIC,"Mycobacteroides abscessus, ATCC19977, reference strain ATCC 19977",2 µg/mL
same,MIC,"Mycobacteroides abscessus, clinical isolate 1N",2 µg/mL
same,MIC,"Mycobacteroides abscessus, clinical isolate 2N",2 µg/mL
same,MIC,"Mycobacteroides abscessus, clinical isolate 3N",2 µg/mL
same,MIC,"Mycobacteroides abscessus, clinical isolate 4N",1 µg/mL
same,MIC,"Mycobacteroides abscessus, clinical isolate 5N",1 µg/mL
same,MIC,"Mycobacteroides abscessus, clinical isolate 8N",4 µg/mL
same,MIC,"Mycobacteroides abscessus, clinical isolate 11N",8 µg/mL
same,MIC,"Mycobacteroides abscessus, clinical isolate 13N",1 µg/mL
same,MIC,"Mycobacteroides abscessus, clinical isolate 14N",8 µg/mL
same,MIC,"Mycobacteroides abscessus, clinical isolate 202",2 µg/mL
same,MIC,"Mycobacteroides abscessus, clinical isolate 203",2 µg/mL
same,MIC,"Mycobacteroides abscessus, clinical isolate 204",8 µg/mL
same,MIC,"Mycobacteroides abscessus, clinical isolate 214",1 µg/mL
same,MIC,"Mycobacteroides abscessus, clinical isolate 215",2 µg/mL
same,MIC,"Mycobacteroides abscessus, clinical isolate JH1801",1 µg/mL
same,MIC,"Mycobacteroides abscessus, clinical isolate JH1802",4 µg/mL
same,MIC,"Mycobacteroides abscessus, clinical isolate JHH2",4 µg/mL
same,MIC,"Mycobacteroides abscessus, clinical isolate JHH4",2 µg/mL
same,MIC,"Mycobacteroides abscessus, clinical isolate JHH9",4 µg/mL
same,MIC,"Mycobacteroides abscessus, clinical isolate JHHKB",2 µg/mL
same,Reduction of T405 MIC by addition of avibactam,"avibactam 4 µg/mL, ATCC 19977 and 10 clinical isolates",two-fold (7 strains) or fourfold (2 strains)
